Assay results reported in patent US20250255867A1 (Kadmon Corporation, LLC, priority 2022, published 2025).

Procedure: All responses were assessed by the investigators.
Reported Adverse Events. […] All-cause mortality data collected during the study were assessed for all enrolled participants. Disease progression related death was not reported as AE.
Number of Participants With Treatment-emergent Adverse Events (TEAEs), and Treatment-emergent Serious Adverse Events (TESAEs). […] TEAEs included both SAEs and non-SAEs. […] Analysis was performed on safety population which included all participants who received at least 1 dose of study medication.

Structure (SMILES): CC(C)NC(=O)COc1cccc(-c2nc(Nc3ccc4[nH]ncc4c3)c3ccccc3n2)c1 [Belumosudil, 2-{3-[4-(1H-indazol-5-ylamino)-2-quinazolinyl]phenoxy}-N-(propan-2-yl) acetamide]
- Urinary retention: # Events (Cohort 2 200 mg BID): 2
- Urinary retention: Affected/At Risk (Cohort 2 200 mg BID): 1/16
- Urinary retention: Affected/At Risk (%) (Cohort 2 200 mg BID): (6.25%)
- Urinary tract infection: # Events (Cohort 2 200 mg BID): 2
- Urinary tract infection: Affected/At Risk (Cohort 2 200 mg BID): 2/16
- Urinary tract infection: Affected/At Risk (%) (Cohort 2 200 mg BID): (12.5%)
- Urinary tract pain: # Events (Cohort 2 200 mg BID): 1
- Urinary tract pain: Affected/At Risk (Cohort 2 200 mg BID): 1/16
- Urinary tract pain: Affected/At Risk (%) (Cohort 2 200 mg BID): (6.25%)
- Urine output decreased: # Events (Cohort 2 200 mg BID): 1
- Urine output decreased: Affected/At Risk (Cohort 2 200 mg BID): 1/16
- Urine output decreased: Affected/At Risk (%) (Cohort 2 200 mg BID): (6.25%)
- Vascular access complication: # Events (Cohort 2 200 mg BID): 1
- Vascular access complication: Affected/At Risk (Cohort 2 200 mg BID): 1/16
- Vascular access complication: Affected/At Risk (%) (Cohort 2 200 mg BID): (6.25%)
- Vertigo: # Events (Cohort 2 200 mg BID): 0
- Vertigo: Affected/At Risk (Cohort 2 200 mg BID): 0/16
- Vertigo: Affected/At Risk (%) (Cohort 2 200 mg BID): (0%)
- Vision blurred: # Events (Cohort 2 200 mg BID): 2
- Vision blurred: Affected/At Risk (Cohort 2 200 mg BID): 2/16
- Vision blurred: Affected/At Risk (%) (Cohort 2 200 mg BID): (12.5%)
- Vomiting: # Events (Cohort 2 200 mg BID): 3
- Vomiting: Affected/At Risk (Cohort 2 200 mg BID): 3/16
- Vomiting: Affected/At Risk (%) (Cohort 2 200 mg BID): (18.75%)
- Weight decreased: # Events (Cohort 2 200 mg BID): 0
- Weight decreased: Affected/At Risk (Cohort 2 200 mg BID): 0/16
- Weight decreased: Affected/At Risk (%) (Cohort 2 200 mg BID): (0%)
- Weight increased: # Events (Cohort 2 200 mg BID): 2
- Weight increased: Affected/At Risk (Cohort 2 200 mg BID): 1/16
- Weight increased: Affected/At Risk (%) (Cohort 2 200 mg BID): (6.25%)
- White blood cell count decreased: # Events (Cohort 2 200 mg BID): 0
- White blood cell count decreased: Affected/At Risk (Cohort 2 200 mg BID): 0/16
- White blood cell count decreased: Affected/At Risk (%) (Cohort 2 200 mg BID): (0%)
- ALT/AST increased all grade, No. (Cohort 2 200 mg BID n=16): 5
- ALT/AST increased grade ≥3, No. (Cohort 2 200 mg BID n=16): 2
- Anemia grade ≥3, No. (Cohort 2 200 mg BID n=16): 1
- Any AE, No. of patients (Cohort 2 200 mg BID n=16): 16
- Cough all grade, No. (Cohort 2 200 mg BID n=16): 4
- Death, No. (Cohort 2 200 mg BID n=16): 0
- Diarrhea all grade, No. (Cohort 2 200 mg BID n=16): 5
- Drug-related AE, No. (Cohort 2 200 mg BID n=16): 8
- Drug-related SAE, No. (Cohort 2 200 mg BID n=16): 0
- Dyspnea all grade, No. (Cohort 2 200 mg BID n=16): 6
- Dyspnea grade ≥3, No. (Cohort 2 200 mg BID n=16): 2
- Fatigue all grade, No. (Cohort 2 200 mg BID n=16): 3
- Grade ≥3 AE, No. (Cohort 2 200 mg BID n=16): 10
- Headache all grade, No. (Cohort 2 200 mg BID n=16): 3
- Hyperglycemia grade ≥3, No. (Cohort 2 200 mg BID n=16): 0
- Hypertension all grade, No. (Cohort 2 200 mg BID n=16): 2
- Hypoxia grade ≥3, No. (Cohort 2 200 mg BID n=16): 1
- Lung infection or pneumonia grade ≥3, No. (Cohort 2 200 mg BID n=16): 2
- Nausea all grade, No. (Cohort 2 200 mg BID n=16): 4
- Peripheral edema all grade, No. (Cohort 2 200 mg BID n=16): 4
- SAE, No. (Cohort 2 200 mg BID n=16): 6
- URI all grade, No. (Cohort 2 200 mg BID n=16): 9
- Patients with relative dose intensity >95% (Cohort 3): 71%
- Abdominal distension: # Events (Cohort 3 400 mg QD): 1
- Abdominal distension: Affected/At Risk (Cohort 3 400 mg QD): 1/21
- Abdominal distension: Affected/At Risk (%) (Cohort 3 400 mg QD): (4.76%)
- Abdominal pain upper: # Events (Cohort 3 400 mg QD): 0
- Abdominal pain upper: Affected/At Risk (Cohort 3 400 mg QD): 0/21
- Abdominal pain upper: Affected/At Risk (%) (Cohort 3 400 mg QD): (0%)
- Abdominal pain: # Events (Cohort 3 400 mg QD): 6
- Abdominal pain: Affected/At Risk (Cohort 3 400 mg QD): 4/21
- Abdominal pain: Affected/At Risk (%) (Cohort 3 400 mg QD): (19.05%)
- Actinic keratosis: # Events (Cohort 3 400 mg QD): 1
- Actinic keratosis: Affected/At Risk (Cohort 3 400 mg QD): 1/21
- Actinic keratosis: Affected/At Risk (%) (Cohort 3 400 mg QD): (4.76%)
- Acute kidney injury: # Events (Cohort 3 400 mg QD): 6
- Acute kidney injury: Affected/At Risk (Cohort 3 400 mg QD): 2/21
- Acute kidney injury: Affected/At Risk (%) (Cohort 3 400 mg QD): (9.52%)
- Acute respiratory distress syndrome: # Events (Cohort 3 400 mg QD): 0
- Acute respiratory distress syndrome: Affected/At Risk (Cohort 3 400 mg QD): 0/21
- Acute respiratory distress syndrome: Affected/At Risk (%) (Cohort 3 400 mg QD): (0%)
- Adrenal insufficiency: # Events (Cohort 3 400 mg QD): 0
- Adrenal insufficiency: Affected/At Risk (Cohort 3 400 mg QD): 0/21
- Adrenal insufficiency: Affected/At Risk (%) (Cohort 3 400 mg QD): (0%)
- Alanine aminotransferase increased: # Events (Cohort 3 400 mg QD): 2
- Alanine aminotransferase increased: Affected/At Risk (Cohort 3 400 mg QD): 2/21
- Alanine aminotransferase increased: Affected/At Risk (%) (Cohort 3 400 mg QD): (9.52%)
- Anaemia: # Events (Cohort 3 400 mg QD): 0
- Anaemia: Affected/At Risk (Cohort 3 400 mg QD): 0/21
- Anaemia: Affected/At Risk (%) (Cohort 3 400 mg QD): (0%)
- Anal incontinence: # Events (Cohort 3 400 mg QD): 0
- Anal incontinence: Affected/At Risk (Cohort 3 400 mg QD): 0/21
- Anal incontinence: Affected/At Risk (%) (Cohort 3 400 mg QD): (0%)
- Anxiety: # Events (Cohort 3 400 mg QD): 3
- Anxiety: Affected/At Risk (Cohort 3 400 mg QD): 3/21
- Anxiety: Affected/At Risk (%) (Cohort 3 400 mg QD): (14.29%)
- Arthralgia: # Events (Cohort 3 400 mg QD): 6
- Arthralgia: Affected/At Risk (Cohort 3 400 mg QD): 5/21
- Arthralgia: Affected/At Risk (%) (Cohort 3 400 mg QD): (23.81%)
- Aspartate aminotransferase increased: # Events (Cohort 3 400 mg QD): 1
- Aspartate aminotransferase increased: Affected/At Risk (Cohort 3 400 mg QD): 1/21
- Aspartate aminotransferase increased: Affected/At Risk (%) (Cohort 3 400 mg QD): (4.76%)
- Asthenia: # Events (Cohort 3 400 mg QD): 0
- Asthenia: Affected/At Risk (Cohort 3 400 mg QD): 0/21
- Asthenia: Affected/At Risk (%) (Cohort 3 400 mg QD): (0%)
- Atelectasis: # Events (Cohort 3 400 mg QD): 0
- Atelectasis: Affected/At Risk (Cohort 3 400 mg QD): 0/21
- Atelectasis: Affected/At Risk (%) (Cohort 3 400 mg QD): (0%)
- Back pain: # Events (Cohort 3 400 mg QD): 1
- Back pain: Affected/At Risk (Cohort 3 400 mg QD): 1/21
- Back pain: Affected/At Risk (%) (Cohort 3 400 mg QD): (4.76%)
- Balance disorder: # Events (Cohort 3 400 mg QD): 0
- Balance disorder: Affected/At Risk (Cohort 3 400 mg QD): 0/21
- Balance disorder: Affected/At Risk (%) (Cohort 3 400 mg QD): (0%)
- Basal cell carcinoma: # Events (Cohort 3 400 mg QD): 0
- Basal cell carcinoma: Affected/At Risk (Cohort 3 400 mg QD): 0/21
- Basal cell carcinoma: Affected/At Risk (%) (Cohort 3 400 mg QD): (0%)
- Benign prostatic hyperplasia: # Events (Cohort 3 400 mg QD): 0
- Benign prostatic hyperplasia: Affected/At Risk (Cohort 3 400 mg QD): 0/21
- Benign prostatic hyperplasia: Affected/At Risk (%) (Cohort 3 400 mg QD): (0%)
- Blepharitis: # Events (Cohort 3 400 mg QD): 2
- Blepharitis: Affected/At Risk (Cohort 3 400 mg QD): 1/21
- Blepharitis: Affected/At Risk (%) (Cohort 3 400 mg QD): (4.76%)
- Blister: # Events (Cohort 3 400 mg QD): 1
- Blister: Affected/At Risk (Cohort 3 400 mg QD): 1/21
- Blister: Affected/At Risk (%) (Cohort 3 400 mg QD): (4.76%)
- Blood alkaline phosphatase increased: # Events (Cohort 3 400 mg QD): 0
- Blood alkaline phosphatase increased: Affected/At Risk (Cohort 3 400 mg QD): 0/21
- Blood alkaline phosphatase increased: Affected/At Risk (%) (Cohort 3 400 mg QD): (0%)
- Blood chloride decreased: # Events (Cohort 3 400 mg QD): 0
- Blood chloride decreased: Affected/At Risk (Cohort 3 400 mg QD): 0/21
- Blood chloride decreased: Affected/At Risk (%) (Cohort 3 400 mg QD): (0%)
- Blood cholesterol increased: # Events (Cohort 3 400 mg QD): 1
- Blood cholesterol increased: Affected/At Risk (Cohort 3 400 mg QD): 1/21
- Blood cholesterol increased: Affected/At Risk (%) (Cohort 3 400 mg QD): (4.76%)
- Blood creatine increased: # Events (Cohort 3 400 mg QD): 0
- Blood creatine increased: Affected/At Risk (Cohort 3 400 mg QD): 0/21
- Blood creatine increased: Affected/At Risk (%) (Cohort 3 400 mg QD): (0%)
- Blood creatine phosphokinase increased: # Events (Cohort 3 400 mg QD): 0
- Blood creatine phosphokinase increased: Affected/At Risk (Cohort 3 400 mg QD): 0/21
- Blood creatine phosphokinase increased: Affected/At Risk (%) (Cohort 3 400 mg QD): (0%)
- Blood creatinine increased: # Events (Cohort 3 400 mg QD): 2
- Blood creatinine increased: Affected/At Risk (Cohort 3 400 mg QD): 2/21
- Blood creatinine increased: Affected/At Risk (%) (Cohort 3 400 mg QD): (9.52%)
